The results in this text go back to ChEMBL document CHEMBL5236596, “Discovery and Optimization of N-Acyl-6-sulfonamide-tetrahydroquinoline Derivatives as Novel Non-Steroidal Selective Glucocorticoid Receptor Modulators” (J Med Chem, 2022).

Experiment [1] addresses T1, Glucocorticoid receptor (Homo sapiens, UniProt P04150).
T1 sequence (P04150 whole entry): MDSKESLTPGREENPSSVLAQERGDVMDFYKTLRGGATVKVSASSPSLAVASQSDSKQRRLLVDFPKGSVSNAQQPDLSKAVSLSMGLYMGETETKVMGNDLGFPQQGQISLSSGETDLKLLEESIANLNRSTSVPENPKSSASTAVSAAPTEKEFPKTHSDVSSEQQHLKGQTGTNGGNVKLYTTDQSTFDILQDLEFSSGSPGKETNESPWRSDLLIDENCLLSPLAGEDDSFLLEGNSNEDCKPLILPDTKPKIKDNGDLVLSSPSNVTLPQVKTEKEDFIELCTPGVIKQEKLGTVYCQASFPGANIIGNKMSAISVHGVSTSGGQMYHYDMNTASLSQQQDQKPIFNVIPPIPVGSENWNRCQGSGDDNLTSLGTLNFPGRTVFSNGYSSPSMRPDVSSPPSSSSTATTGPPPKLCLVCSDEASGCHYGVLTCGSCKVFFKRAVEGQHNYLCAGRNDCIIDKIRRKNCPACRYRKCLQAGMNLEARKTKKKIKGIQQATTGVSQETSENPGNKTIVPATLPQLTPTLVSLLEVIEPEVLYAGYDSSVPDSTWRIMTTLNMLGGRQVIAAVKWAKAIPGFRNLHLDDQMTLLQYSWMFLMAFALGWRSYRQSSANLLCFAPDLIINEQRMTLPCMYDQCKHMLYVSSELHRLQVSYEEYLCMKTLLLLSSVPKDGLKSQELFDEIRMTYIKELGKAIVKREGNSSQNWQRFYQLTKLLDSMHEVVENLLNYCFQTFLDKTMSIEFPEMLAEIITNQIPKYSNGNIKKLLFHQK
The experiment can be described thus: Binding affinity to glucocorticoid receptor (unknown origin) by Lanthascreen TR-FRET competition binding assay. (In TR-FRET formats the signal depends on donor and acceptor labels being close together.)

Experiment [2] deals with T1, Glucocorticoid receptor. Briefly: Modulation of glucocorticoid receptor (unknown origin) transfected in human HeLa cells assessed as transrepression by measuring inhibition of PMA-induced AP-1 signalling incubated for 18 hrs by dual-luciferase reporter based assay. It counts as cell-based. On the technique in general: In a reporter assay the amount or activity of a reporter protein is the signal.

Experiment [3] concerns the target T1, Glucocorticoid receptor. Briefly: Modulation of glucocorticoid receptor (unknown origin) transfected in human HeLa cells assessed as transrepression by measuring inhibition of TNF-alpha induced NF-kappaB signalling incubated for 18 hrs by dual-luciferase reporter based assay. It counts as cell-based.

Some results are limits rather than exact numbers.

In general, IC50 refers to the point on the concentration scale where inhibition reaches its midpoint. Turning to `N#Cc1ccc(S(=O)(=O)N(c2ccc3c(c2)CCCN3C(=O)c2ccco2)S(=O)(=O)c2ccc(C#N)cc2)cc1`, the IC50 at Glucocorticoid receptor [1] is above 30 µM; at Glucocorticoid receptor [2], 3.15 µM; on Glucocorticoid receptor [3] it was above 10 µM.

As to `O=C(c1ccco1)N1CCCc2cc(N(S(=O)(=O)c3cc4ccccc4s3)S(=O)(=O)c3cc4ccccc4s3)ccc21`, the results for the IC50 on Glucocorticoid receptor [1], on Glucocorticoid receptor [2] and at Glucocorticoid receptor [3] were above 50 µM, 3.19 µM and 0.43 µM, respectively.

Turning to `NC(=O)c1ccc(S(=O)(=O)Nc2ccc3c(c2)CCCN3C(=O)c2ccco2)cc1`, the IC50 at Glucocorticoid receptor [2] and on Glucocorticoid receptor [3] was above 10 µM throughout.

Regarding `CC(C)(C)c1ccc(S(=O)(=O)Nc2ccc3c(c2)CCCN3C(=O)c2ccco2)cc1`, the IC50 stood at 0.47 µM on Glucocorticoid receptor [1], 1.15 µM at Glucocorticoid receptor [2] and 0.18 µM on Glucocorticoid receptor [3].

`COc1cc(C)c(Cl)cc1S(=O)(=O)Nc1ccc2c(c1)N(C(=O)c1ccco1)CCC2`: the IC50 is above 50 µM on Glucocorticoid receptor [1], 0.68 µM at Glucocorticoid receptor [2] and 0.06 µM at Glucocorticoid receptor [3].

`COc1ccc(C)c(C)c1S(=O)(=O)Nc1ccc2c(c1)CCCN2C(=O)c1ccco1`: the figures for the IC50 at Glucocorticoid receptor [1], on Glucocorticoid receptor [2] and at Glucocorticoid receptor [3] were 1.35 µM, 0.99 µM and 0.1 µM, respectively.

As to `O=C(c1ccco1)N1CCCc2cc(NS(=O)(=O)c3ccc(C(F)(F)F)cc3)ccc21`, the IC50 on Glucocorticoid receptor [1] is above 50 µM; at Glucocorticoid receptor [2], 3.22 µM; on Glucocorticoid receptor [3] it was 2.62 µM.

Regarding `COc1cc(C)c(Cl)cc1S(=O)(=O)Nc1ccc2c(c1)CCCN2C(=O)c1ccc(C)cc1F`, the IC50 at Glucocorticoid receptor [2] and at Glucocorticoid receptor [3] was above 10 µM each time.

Turning to `O=C(c1ccco1)N1CCCc2cc(NS(=O)(=O)c3ccccc3)ccc21`, the figures for the IC50 at Glucocorticoid receptor [1], at Glucocorticoid receptor [2] and on Glucocorticoid receptor [3] were 1.92 µM, 3.83 µM and 3.99 µM, respectively.

In the case of `COc1cc(C)c(Cl)cc1S(=O)(=O)Nc1ccc2c(c1)CCCN2C(=O)c1ccncc1`, the IC50 at Glucocorticoid receptor [1] is above 50 µM; on Glucocorticoid receptor [2], 0.55 µM; on Glucocorticoid receptor [3], 0.02 µM.

For `COc1cc(C)c(Cl)cc1S(=O)(=O)Nc1ccc2c(c1)CCCN2C(=O)C1CCCCC1`, the IC50 was above 50 µM at Glucocorticoid receptor [1], above 10 µM on Glucocorticoid receptor [2] and 0.58 µM at Glucocorticoid receptor [3].

Turning to `COc1cccc(Cl)c1S(=O)(=O)Nc1ccc2c(c1)CCCN2C(=O)c1ccco1`, the IC50 on Glucocorticoid receptor [2] and at Glucocorticoid receptor [3] was above 10 µM each time.

In the case of `COC(=O)c1ccc(C(=O)N2CCCc3cc(NS(=O)(=O)c4cc(Cl)c(C)cc4OC)ccc32)cc1`, the figures for the IC50 on Glucocorticoid receptor [1], at Glucocorticoid receptor [2] and on Glucocorticoid receptor [3] were above 50 µM, 2.72 µM and 0.71 µM, respectively.

For the compound `COc1cc(C)c(Cl)cc1S(=O)(=O)Nc1ccc2c(c1)CCCN2C(=O)c1cccs1`, the IC50 on Glucocorticoid receptor [1] stood at 1.14 µM; at Glucocorticoid receptor [2], 1.36 µM; at Glucocorticoid receptor [3] it was 0.17 µM.

For the compound `O=C(c1ccco1)N1CCCc2cc(NS(=O)(=O)c3ccc(-c4ccccc4)cc3)ccc21`, the IC50 at Glucocorticoid receptor [1] worked out at 0.09 µM; at Glucocorticoid receptor [2], 7.22 µM; on Glucocorticoid receptor [3] it was 0.81 µM.

With `COc1ccc(S(=O)(=O)Nc2ccc3c(c2)CCCN3C(=O)c2ccco2)cc1`, the IC50 is above 50 µM on Glucocorticoid receptor [1], 5.62 µM at Glucocorticoid receptor [2] and 1.83 µM on Glucocorticoid receptor [3].

Turning to `COc1cc(C)c(C)cc1S(=O)(=O)Nc1ccc2c(c1)CCCN2C(=O)c1ccccc1`, the IC50 at Glucocorticoid receptor [1] is above 50 µM; on Glucocorticoid receptor [2], 1.14 µM; on Glucocorticoid receptor [3] it was 0.89 µM.

For the compound `COc1cc(C)c(Cl)cc1S(=O)(=O)Nc1ccc2c(c1)CCCN2C(=O)c1ccc2ccccc2c1`, the IC50 on Glucocorticoid receptor [1] amounted to 3.28 µM; at Glucocorticoid receptor [2], 1.95 µM; at Glucocorticoid receptor [3], 0.33 µM.

Take `COc1cc(C)c(Cl)cc1S(=O)(=O)Nc1ccc2c(c1)CCCN2C(=O)c1ccco1`: the IC50 on Glucocorticoid receptor [1] is 5.02 µM; at Glucocorticoid receptor [2], above 10 µM; at Glucocorticoid receptor [3], 0.05 µM.

On to `O=C(c1ccco1)N1CCCc2cc(N(S(=O)(=O)c3ccc(Br)cc3)S(=O)(=O)c3ccc(Br)cc3)ccc21`, for which the half-maximal inhibitory concentration (IC50) on Glucocorticoid receptor [2] is above 25 µM; on Glucocorticoid receptor [3], above 10 µM.

As for `O=C(c1ccco1)N1CCCc2cc(N(S(=O)(=O)c3ccc([N+](=O)[O-])cc3)S(=O)(=O)c3ccc([N+](=O)[O-])cc3)ccc21`, the results for the IC50 at Glucocorticoid receptor [1], at Glucocorticoid receptor [2] and on Glucocorticoid receptor [3] were above 50 µM, 4.8 µM and 2.66 µM, respectively.

For the compound `O=C(c1ccco1)N1CCCc2cc(N(S(=O)(=O)c3ccc4c(c3)CCCC4)S(=O)(=O)c3ccc4c(c3)CCCC4)ccc21`, the values for the IC50 on Glucocorticoid receptor [1], at Glucocorticoid receptor [2] and at Glucocorticoid receptor [3] were above 50 µM, 7.99 µM and 0.7 µM, respectively.

As for `O=C(c1ccco1)N1CCCc2cc(N(S(=O)(=O)c3cccnc3)S(=O)(=O)c3cccnc3)ccc21`, the IC50 on Glucocorticoid receptor [2] is above 50 µM; on Glucocorticoid receptor [3], above 10 µM.

As to `O=C(c1ccco1)N1CCCc2cc(NS(=O)(=O)c3ccc4c(c3)CCCC4)ccc21`, the IC50 at Glucocorticoid receptor [1] stood at 1.22 µM; on Glucocorticoid receptor [2], 4.07 µM; at Glucocorticoid receptor [3] it was 0.32 µM.

With `O=C(c1ccco1)N1CCCc2cc(N(S(=O)(=O)c3cccs3)S(=O)(=O)c3cccs3)ccc21`, the IC50 at Glucocorticoid receptor [1] was above 50 µM; on Glucocorticoid receptor [2], 2.86 µM; on Glucocorticoid receptor [3], 1.05 µM.

`Cc1ccc(S(=O)(=O)N(c2ccc3c(c2)CCCN3C(=O)c2ccco2)S(=O)(=O)c2ccc(C)cc2)cc1`: the IC50 at Glucocorticoid receptor [1] is above 50 µM; at Glucocorticoid receptor [2], 0.33 µM; on Glucocorticoid receptor [3], 0.09 µM.

Turning to `COc1cc(C)c(Cl)cc1S(=O)(=O)Nc1ccc2c(c1)CCCN2C(=O)c1ncccn1`, the IC50 on Glucocorticoid receptor [1] is above 50 µM; at Glucocorticoid receptor [2], 1.17 µM; at Glucocorticoid receptor [3], 0.13 µM.

On to `COc1ccc(C(=O)N2CCCc3cc(NS(=O)(=O)c4cc(Cl)c(C)cc4OC)ccc32)cc1OC`, for which the figures for the IC50 at Glucocorticoid receptor [1], on Glucocorticoid receptor [2] and on Glucocorticoid receptor [3] were 3.43 µM, 1.32 µM and 0.45 µM, respectively.

In the case of `O=C(c1ccco1)N1CCCc2cc(NS(=O)(=O)c3ccc(Cl)c([N+](=O)[O-])c3)ccc21`, the IC50 at Glucocorticoid receptor [1] is 0.59 µM; on Glucocorticoid receptor [2] it was 1 µM; at Glucocorticoid receptor [3], 0.26 µM.

Consider `COc1cc(C)c(Cl)cc1S(=O)(=O)Nc1ccc2c(c1)CCCN2C(=O)c1ccc(C)cc1`, for which the IC50 at Glucocorticoid receptor [1] was above 50 µM; on Glucocorticoid receptor [2], 1.11 µM; at Glucocorticoid receptor [3], 0.08 µM.

With `COC(=O)c1ccc(S(=O)(=O)N(c2ccc3c(c2)CCCN3C(=O)c2ccco2)S(=O)(=O)c2ccc(C(=O)OC)cc2)cc1`, the IC50 on Glucocorticoid receptor [2] is above 10 µM; on Glucocorticoid receptor [3], above 50 µM.

On to `O=C(c1ccco1)N1CCCc2cc(N(S(=O)(=O)c3ccc(C(F)(F)F)cc3)S(=O)(=O)c3ccc(C(F)(F)F)cc3)ccc21`, for which the IC50 on Glucocorticoid receptor [2] and at Glucocorticoid receptor [3] was above 50 µM in each case.

Regarding `CC(C)(C)c1ccc(S(=O)(=O)N(c2ccc3c(c2)CCCN3C(=O)c2ccco2)S(=O)(=O)c2ccc(C(C)(C)C)cc2)cc1`, the IC50 on Glucocorticoid receptor [2] and on Glucocorticoid receptor [3] was above 10 µM throughout.

As for `C#CC1=C(SCC(=O)c2ccccc2)NC(C)=C(C(C)=O)C1c1cccs1` (stereo not given), the IC50 on Glucocorticoid receptor [1] was 1.86 µM.

With `CCS(=O)(=O)N(c1ccc2c(c1)CCCN2C(=O)c1ccco1)S(=O)(=O)CC`, the IC50 at Glucocorticoid receptor [2] and at Glucocorticoid receptor [3] was above 50 µM in each case.

`O=C(c1ccco1)N1CCCc2cc(NS(=O)(=O)c3ccc(F)cc3)ccc21`: the IC50 on Glucocorticoid receptor [2] and on Glucocorticoid receptor [3] was above 10 µM each time.

As for `N#Cc1ccc(S(=O)(=O)Nc2ccc3c(c2)CCCN3C(=O)c2ccco2)cc1`, the IC50 on Glucocorticoid receptor [2] and at Glucocorticoid receptor [3] was above 10 µM throughout.

Take `O=C(c1ccco1)N1CCCc2cc(N(S(=O)(=O)Cc3ccccc3)S(=O)(=O)Cc3ccccc3)ccc21`: the IC50 at Glucocorticoid receptor [2] and at Glucocorticoid receptor [3] was above 50 µM in each case.
